# Assay results as given in patent publication US20110130374A1, “Small Pyrimidine Derivatives and Methods of Use Thereof” (BIOSEARCH(2007) LTD., priority 2009, published 2011).
# Key:
# Assay type in all cases: cell-based
# [1] = tested on: 4T1 (breast-mouse) cells; assay: Transwell cell migration assay, 4T1
# From the text: (§1) A375 (melanoma) (CRL-1619, ATCC, Manassas, Va., USA), A431 (melanoma) (CRL-2592, ATCC, Manassas, Va., USA), A2058 (melanoma) (CRL-11147, ATCC, Manassas, Va., USA), MDA-MB-231 (breast) (HTB-26, ATCC, Manassas, Va., USA), LS175T (colon) (ATCC, Manassas, Va., USA), HT29 (colon) (HTB-38, ATCC, Manassas, Va., USA), PC3 (prostate) (CRL-1435, ATCC, Manassas, Va., USA), Panc03.27 (pancreatic) (ATCC, Manassas, Va., USA), 4T1 (breast-mouse) (CRL-2539, ATCC, Manassas. Va., USA), D122 (lung-mouse) (the Weizmann Institute of Science), D122-luc (lung-mouse) (the Weizmann Institute of Science), and B16 F10.9 (melanoma-mouse) cells (Caliper Life Sciences, Hopkinton Mass.), were grown in RPMI medium supplemented with 10% FBS. HUVEC cells were grown in Endothelial Cell Growth Medium 2 and THP1 cells were grown in RPMI medium supplemented with 10% FBS, 2 mM L-Glutamine, 1.5 g/L sodium bicarbonate, 10 mM Hepes, 1 mM sodium pyruvate, 4.5 g/L glucose and 0.05 mM 2-mercaptoethanol. The cells were starved for 24 hours in medium without FBS. […] Cells that migrated to the lower side of the membrane were stained with Calcein-AM (Sigma) and images were taken with a fluorescence microscope. The number of migrating cells was quantified by ImageJ software and the IC50 values were calculated using Prism software (Graphpad).
# [2] = tested on: B16 F10.9 (melanoma-mouse) cells; assay: Transwell cell migration assay, B16 F10.9
# From the text: as §1
# [3] = tested on: MDA-MB-468 breast cancer cells; assay: Transwell cell migration assay, MDA-MB-468 breast cancer cells; conditions: MDA-MB-468, 12.5 μM, 24 h, 8 μm pore (FIG. 2)
# Protocol: (§2) MDA-MB-231 (HTB-26, ATCC, Manassas, Va., USA) and MDA-MB-468 (HTB-132, ATCC, Manassas, Va., USA) breast cancer cell lines and DU 145 (HTB-81, ATCC, Manassas, Va., USA) prostate cancer cell line grown in RPMI medium supplement with 10% FBS were starved for 24 hours in medium without FBS. After 24 hours, 5×10^4 cells in FBS free medium were placed in the upper chamber of 24-well Transwell apparatus (CORNING TRANSWELL® polycarbonate membrane inserts, 8 μm pore size) with solvent (DMSO/PEG400) or 12.5 μM Compound 1 as indicated. Medium with FBS and Compound 1 was added to the bottom chamber. Twenty-four hours later the cells from the upper chamber were removed with a cotton swab. Cells that migrated to the lower side of the membrane were stained with Calcein-AM (Sigma) and images were taken with a fluorescence microscope.
# [4] = tested on: DU145 prostate cancer cell line; assay: Transwell cell migration assay, DU 145 prostate cancer cell line; conditions: DU145, 12.5 μM, 24 h, 8 μm pore (FIG. 2)
# Protocol: as §2
# [5] = tested on: LS175T (colon) cells; assay: Transwell cell migration assay, LS175T
# From the text: as §1
# [6] = tested on: THP1 monocytes; assay: Transwell cell migration assay, THP1; conditions: Homo sapiens, THP-1; THP1, Monocyte
# From the text: as §1
# [7] = tested on: D122-luc (lung-mouse) cells; assay: Transwell cell migration assay, D122-luc
# From the text: as §1
# [8] = tested on: D122 (lung-mouse) cells; assay: Transwell cell migration assay, D122
# From the text: as §1
# [9] = tested on: PC3 (prostate) cells; assay: Transwell cell migration assay, PC3
# From the text: as §1
# [10] = tested on: MDA-MB-231 breast cancer cells; assay: Transwell cell migration assay, MDA-MB-231 breast cancer cells
# Protocol: as §2, with “microscope. […]” for “microscope.”
# [11] = tested on: HT29 (colon) cells; assay: Transwell cell migration assay, HT29; conditions: Homo sapiens, HT-29
# From the text: as §1
# [12] = tested on: A431 (melanoma) cells; assay: Transwell cell migration assay, A431; conditions: Homo sapiens, A-431
# From the text: as §1
smiles,measurement,setting,value
Cc1cc(C)nc(NS(=O)(=O)c2ccc(NC(=O)/C(=C\c3cccs3)NC(=O)c3cccs3)cc2)n1 [Compound 1],IC50,[1],0.8 µM
same,IC50,[2],0.2 µM
same,"cell migration (Transwell, images)",[3],inhibits the migration
same,"cell migration (Transwell, images)",[4],inhibits the migration
same,IC50,[5],1 µM
same,IC50,[6],> 30 µM
same,IC50,[7],1.6 µM
same,IC50,[8],1.4 µM
same,IC50,[9],6.3 µM
same,IC50,"[10]; Homo sapiens, MDA-MB-231, MDA-MB231, Breast",0.5 µM
same,"cell migration (Transwell, images)","[10]; MDA-MB-231, 12.5 μM, 24 h, 8 μm pore (FIG. 2)",inhibits the migration
same,IC50,[11],1.5 µM
same,IC50,[12],1.1 µM
